From a melting point compilation (Tetko et al.; mined from patent text by program, amines drawn as free bases though some values may be those of a salt)

Compound `O=Cc1ccc(OC[C@H]2CO2)cc1` has a melting point of 32 °C.
`Nc1ncnc2c1ncn2Cc1nc2cccc(F)c2c(=O)n1-c1ccccc1Cl` showed a melting point of 159 to 172 °C.
`FC(F)(F)CNC(=S)NCc1ccc(OC(F)(F)F)cc1` showed a melting point of 94.7 to 96.4 °C.
Work on `O=C1C=C(NC(=O)C(=O)c2cn(Cc3ccc(Cl)cc3)c3ccccc23)CO1` yielded a melting point of 253 to 255 °C.
In the case of `O=C1c2ccc([N+](=O)[O-])cc2C(=O)N1C1CCN(C2CCCCC2)CC1`, the melting point was 265 to 270 °C.
In the case of `O=C(Nc1ccc(OS(=O)(=O)c2cccc(C(F)(F)F)c2)cc1[N+](=O)[O-])NS(=O)(=O)Cl`, the melting point was 152 °C.
In the case of `CCOC(=O)C(C#N)CCCCCCc1ccc(Cl)cc1` (stereo unspecified), the melting point was 121 to 122 °C.
In the case of `CCN1C(=O)C(=O)N(c2cc(F)ccc2C)C1=S`, the melting point was 152 to 153 °C.
Compound `COC(=O)c1cnc(N2CCN(c3nc4ccc(C(F)(F)F)cc4[nH]3)CC2)c(Cl)c1` has a melting point of 153 to 159 °C.
For `O=C(CCl)NN1CCOC(c2ccccc2)(c2ccccc2)CC1`, the melting point was 150 to 152 °C.
In the case of `CC(=O)Nc1ccc(S(=O)(=O)F)cc1`, the melting point was 169 to 171 °C.
`CC1=NCC2CC(=O)N(c3ccccc3)c3cc(Cl)ccc3N12` (stereo unspecified) showed a melting point of 248 to 251 °C.
In the case of `COc1ccc(/C=N/Nc2ccccc2C(=O)O)cc1OC1CCCC1`, the melting point was 174 to 176 °C.
`CC(=O)Nc1cccc(Oc2cc(-c3ccc(C(F)(F)F)cc3)ncn2)c1` gave a melting point of 202 to 205 °C.
In the case of `COc1ccc(S(=O)(=O)NCc2ccccc2)c2c1oc1ccccc12`, the melting point was 180 to 185 °C.
With `CC(C)(C)OC(=O)N1CCN(c2ccnc3sc(C(N)=O)c(N)c23)CC1` the melting point was 198 to 203 °C.
Compound `O=C(Nc1ccccc1)O[C@@H]1CN=C(c2ccc(NC(=O)C(F)(F)F)cc2)O[C@H]1c1ccccc1` (racemic) has a melting point of 210 °C.
Compound `COC(=O)c1ccc(OC)nc1OC` has a melting point of 52 to 54 °C.
`CC(=O)Oc1ccc2c3c(cc(Cl)c2c1)-c1cc(F)c(OC(C)=O)cc1CO3` showed a melting point of 194 to 198 °C.
In the case of `Cc1ccc2c(c1)C=Cc1cc(C)ccc1C2c1cn(-c2ccnc(NC(Cc3c[nH]cn3)C(=O)O)n2)c(=O)[nH]c1=O` (stereo unspecified), the melting point was 223 °C.
`CCc1cccc(C)c1CNc1nc(OC)cc2c1nc(C)n2C` gave a melting point of 106 to 107 °C.
Work on `COc1ccc(C(=O)Nc2ccc(C(C)(C)CNC(C)=O)c(-c3cccnc3)c2)cc1OC` yielded a melting point of 234 to 237 °C.
`CCc1c(CC(=O)O)c(C)nc(C)c1Cc1nc2c(F)c(F)cc(F)c2s1` showed a melting point of 193 to 195 °C.
For `CCN1CCCC1CNC(=O)c1c(O)c(OC)c2occc2c1OC` (stereo unspecified), the melting point was 86 °C.
For `O=C(Oc1ccccc1)OC1C2=C(SCCS2)C(=O)N1c1ccc(Cl)cn1` (stereo unspecified), the melting point was 178 °C.
`O=C(Cc1ccsc1)N[C@H]1C[C@H](C(=O)O)Nc2cc(Cl)cc(Cl)c21` (relative stereo) gave a melting point of 198 to 200 °C.
Work on `CCOC(=O)c1cnc2snc(C)c2c1NCS(=O)(=O)c1ccc(Oc2ccc(Cl)cc2)cc1` yielded a melting point of 117 to 120 °C.
Work on `CSc1cc(CCC(=O)OC(C)(C)C)nc(-c2nc(=O)c3ccccc3s2)c1` yielded a melting point of 155 to 156 °C.
Compound `O=C(Cn1c(-c2ccc(Cl)cc2)nc2cccnc21)N1CCOCC1` has a melting point of 213 to 216 °C.
With `CCN(CCCP(=O)(O)O)S(=O)(=O)C(F)(F)C(F)(F)C(F)(F)C(F)(F)F` the melting point was 138 to 140 °C.
For `CCC(CC)Oc1cc(C)nc2c1NC(=O)CN2c1c(C)cc(C)cc1C`, the melting point was 179 to 181 °C.
Compound `CC(C)NC(=O)N1CC(Oc2cccc(C(F)(F)F)c2)C1` has a melting point of 150 to 152 °C.
Compound `CC(=O)NS(=O)(=O)c1cncc([N+](=O)[O-])c1` has a melting point of 176 to 178 °C.
Work on `CN1C(=O)N2CCOC2(c2ccccc2)c2cc([N+](=O)[O-])ccc21` (stereo unspecified) yielded a melting point of 136 °C.
With `C=CCCN(c1ccc(OC)cc1)S(=O)(=O)c1c(F)c(F)c(F)c(F)c1F` the melting point was 64 to 66 °C.
`O=S(=O)(c1ccc(O)cc1)c1ncn(-c2ccccc2)c1-c1ccccc1` gave a melting point of 300 °C.
For `COc1nc(OC)nc(OC(=O)c2cccc3cc(O)ccc23)n1`, the melting point was 166 to 168 °C.
Compound `COc1ccc(/C=C(\CSC(C)=O)C(=O)O)cc1` has a melting point of 155 °C.
For `CCCCCCCCNc1c(Nc2ccc(CC(C)NC[C@H](O)COc3ccc(O)cc3)cc2)c(=O)c1=O` (stereo partly specified), the melting point was 122 to 127 °C.
Compound `Cc1ccc(C)c2c1CN(NC(=S)NC(=O)c1ccccc1)C2` has a melting point of 163 to 164 °C.
In the case of `Cc1oc2c(NC(=O)c3c(Cl)ccc(Cl)c3C(=O)O)cccc2c1C`, the melting point was 186 to 188 °C.
For `CCc1ccc(S(=O)(=O)Nc2ccccc2/C=C/c2ccncc2)cc1`, the melting point was 232 to 234 °C.
With `CC(=O)C1CC2=C(CO1)C(=O)c1ccc(O)cc1C2=O` (stereo unspecified) the melting point was 169 to 170 °C.
`CC(C)Oc1cccc(-n2c(NC(=O)Nc3cccc(C(=O)O)c3)nc3ccccc3c2=O)c1` showed a melting point of 158 to 160 °C.
Work on `Ic1ccc(Cc2cc(I)c(Cc3ccc(I)cc3)cc2I)cc1` yielded a melting point of 210 to 213 °C.
Compound `Nc1ccn(C2OC(CO)C(O)C2O)c(=O)c1Br` (stereo unspecified) has a melting point of 202 to 204 °C.
With `COc1cc2c(cc1O)CCN(Cc1cccc(O)c1)C2` the melting point was 177 to 178 °C.
For `Nc1ccc(Nc2ccc([N+](=O)[O-])cc2S(=O)(=O)CCO)cc1`, the melting point was 147 to 149 °C.
Work on `CC(C)(C)OC(=O)Cc1nc(Sc2ccccc2)ccc1[N+](=O)[O-]` yielded a melting point of 104 to 107 °C.
With `COc1ccc(C)c(NCc2ccccc2)c1` the melting point was 81 to 82 °C.
Compound `Cc1ccc([N+](=O)[O-])c(C(=O)Nc2nnn[nH]2)c1` has a melting point of 278 to 279 °C.
With `COc1c(Cl)ccc(-c2cc(N)c(Cl)c(C(=O)NOCC(C)C)n2)c1F` the melting point was 145 to 148 °C.
In the case of `O=[N+]([O-])c1cn(-c2cncc(F)c2)nc1Cl`, the melting point was 110 to 111 °C.
In the case of `CC1CC(C(=O)O)CCN1C(=O)OC(C)(C)C` (stereo unspecified), the melting point was 109 to 112 °C.
For `CNCCc1c[nH]c2ccc(Cn3cncn3)cc12`, the melting point was 139 to 141 °C.
With `O=Cc1cccc2cncn12` the melting point was 138 to 140 °C.
`CC(C)(C)OC(=O)N1CCN(c2cccc(Cl)c2/C=N/NS(=O)(=O)c2ccccc2)CC1` showed a melting point of 162 to 165 °C.
`CNC(=O)c1cc(-c2ccc(OC)c(Cl)c2)nn(CC(C)C)c1=O` gave a melting point of 182 to 184 °C.
For `CS(=O)(=O)c1ccc(C2=C(c3ccc(Cl)cc3)CCC2)cc1`, the melting point was 128 °C.
In the case of `COc1cccc2c1C[C@H]1C[C@@H](CCN3CCN(C(c4ccccc4)c4ccccc4)CC3)CN(C)[C@@H]1C2`, the melting point was 140 to 148 °C.
In the case of `Cc1ccccc1NC(=O)c1c(C)nn(C)c1N`, the melting point was 113 to 115 °C.
With `COc1cc(F)ccc1CCN1c2nc(-c3ccncn3)cc(=O)n2CCC1C` (stereo unspecified) the melting point was 148 to 150 °C.
Compound `CCCCCCCn1c(C)c(CC(=O)O)c2cc(OCc3ccc4ccccc4n3)ccc21` has a melting point of 127 to 131 °C.
Compound `Clc1ccc2nc(-c3ccccc3)oc2n1` has a melting point of 150 to 151 °C.
Compound `CC(=O)c1c[nH]c2c3c(ccc12)OCC3` has a melting point of 233 to 234 °C.
In the case of `COc1cc(-n2nc(C(F)(F)F)cc2-c2ccc(-c3ccco3)cc2)ccc1S(C)(=O)=O`, the melting point was 139 °C.
With `COC(=O)C(=C(/C)c1cc(OC)cc(OC)c1)/C(=C\c1ccccc1)C(=O)NN1CCN(C)CC1` the melting point was 117 to 121 °C.
Work on `CCOC(=NO)C(=O)C1=Nc2ccccc2C(=O)N(C)C1` yielded a melting point of 173 to 174 °C.
Compound `Cc1nc(C)c(C(=O)O)c(-c2ccccc2F)c1C(=O)O` has a melting point greater than 285 °C.
Compound `CCOC(=O)c1cc(Cl)cc(NCS(=O)(=O)c2ccc(Cl)cc2)c1Cl` has a melting point of 173 to 175 °C.
`CCOCC(O)(COCC)C(Cc1cc(OC)cc(OC)c1)NC(=O)OC(C)(C)C` (stereo unspecified) showed a melting point of 73.5 to 75 °C.
Work on `CC(C)(C)c1nc2cc(N3CCN(S(C)(=O)=O)CC3)c(N)cc2s1` yielded a melting point of 153 to 155 °C.
`CCOC(=O)c1nnnn1Cc1ccc(OC)cc1` showed a melting point of 52 °C.
Work on `COc1cc2nc(N3CCN(C(=O)C=Cc4cccc(C(F)(F)F)c4)CC3)nc(N)c2cc1OC` yielded a melting point of 225 to 227 °C.
Compound `Cc1cc(C(C)(O)c2ccc(C(F)(F)F)cn2)ccc1NC(=O)OC(C)(C)C` (stereo unspecified) has a melting point of 132 to 134 °C.
In the case of `Cc1c(Cl)c(Cl)nc2c1NC(=O)c1cccnc1N2C1CC1`, the melting point was greater than 290 °C.
`COC(=O)c1sc2ccccc2c1OCC(C)=O` gave a melting point of 57 to 58 °C.
Compound `CN(C)CC(O)C(c1ccccc1)c1ccc(F)cc1` (stereo unspecified) has a melting point of 55 to 57 °C.
For `CCCCc1nc(C#N)c(C#N)n1Cc1ccc(N)cc1`, the melting point was 99 to 104 °C.
With `O=C(O)CC1=C(Cc2ccc3c(Cl)cccc3c2)C(=O)CCC1` the melting point was 98 to 100 °C.
`COc1ccc2c(c1)C(=O)C(=Cc1nccs1)CO2` showed a melting point of 130 to 132 °C.
In the case of `N#CCCN(N)c1nc2cccc(Cl)c2o1`, the melting point was 114 to 115 °C.
With `COc1ccccc1CCNC[C@H](O)COc1ncccc1C#N` the melting point was 97 to 99 °C.
For `COC(=O)c1cncn1C1c2ccccc2C(OC)(OC)C1(C)C` (stereo unspecified), the melting point was 140 to 141 °C.
`O=c1[nH]c(Cc2ccccc2)ccc1CCl` showed a melting point of 142 to 145 °C.
With `COc1ccccc1C(CO)c1c[nH]c2c(=O)[nH]c(N)nc12` (stereo unspecified) the melting point was 262 to 265 °C.
Compound `CCCCCCCCCCCCCCCCC1CC(=O)N(NC(=O)CCc2cc(C(C)(C)C)c(O)c(C(C)(C)C)c2)C1=O` (stereo unspecified) has a melting point of 85 °C.
With `CCCc1nc2c(N)nc3cc(OCCCCCCNC(=O)c4ccc(N=[N+]=[N-])cc4O)ccc3c2s1` the melting point was 127 to 128 °C.
`CCOC(=O)Cc1cccc(C(=O)c2ccccc2)c1NC(C)=O` gave a melting point of 133 to 134 °C.
For `N#Cc1c(N2CCN(C(=O)C3CCCS3)CC2)c2ccccc2n(Cc2ccc(F)cc2)c1=O` (stereo unspecified), the melting point was 133 to 140 °C.
Compound `COc1ccnc2c(S(=O)c3nc4ccccc4[nH]3)cccc12` (stereo unspecified) has a melting point of 178 to 179 °C.
In the case of `CC(O)c1nccc2c1CCCC2` (stereo unspecified), the melting point was 60 to 61 °C.
With `COc1ccc2[nH]c(C(C)=NO)cc2c1` the melting point was 148 to 150 °C.
`CC(C)N(C)c1cc2c(cc1Cl)NC(=O)CC(c1cccc(-n3nncc3CO)c1)=N2` showed a melting point of 207 °C.
`COCCOc1ccc2sc(C(=O)Nc3ccccc3N)cc2c1` gave a melting point of 162 to 165 °C.
Work on `CC(=O)c1c(C)c2cnc(Nc3ccc(N4CCOCC4)nc3)nc2n(C2CCCC2)c1=O` yielded a melting point of 224 to 226 °C.
Work on `CC(NS(=O)(=O)c1cc(C(=O)Cl)ccc1Cl)c1ccccc1` (stereo unspecified) yielded a melting point of 112 °C.
Compound `CCCCOc1ccc(-n2cc(C(=O)O)cn2)cc1C#N` has a melting point of 200 to 202 °C.
In the case of `CC(=O)NNc1ccnc2c(NC(=O)c3c(Cl)cccc3Cl)cc(F)cc12`, the melting point was 250 to 254 °C.
Compound `c1ccc(Nc2nc3ccccc3n3cc(-c4ccccc4)cc23)cc1` has a melting point of 172 °C.
In the case of `N#Cc1cc(Cl)nc(NN)c1`, the melting point was 208 to 210 °C.
